For the experiment, the target named is Metabotropic glutamate receptor 5 (Homo sapiens, UniProt P41594). Briefly: Positive allosteric modulation of human mGlu5 expressed in HEK293 cells assessed as glutamate-induced calcium mobilization. A general note: Calcium assays in cells follow changes in intracellular calcium, usually with a dye or a luminescent sensor.
Sequence of Metabotropic glutamate receptor 5 (P41594 whole entry): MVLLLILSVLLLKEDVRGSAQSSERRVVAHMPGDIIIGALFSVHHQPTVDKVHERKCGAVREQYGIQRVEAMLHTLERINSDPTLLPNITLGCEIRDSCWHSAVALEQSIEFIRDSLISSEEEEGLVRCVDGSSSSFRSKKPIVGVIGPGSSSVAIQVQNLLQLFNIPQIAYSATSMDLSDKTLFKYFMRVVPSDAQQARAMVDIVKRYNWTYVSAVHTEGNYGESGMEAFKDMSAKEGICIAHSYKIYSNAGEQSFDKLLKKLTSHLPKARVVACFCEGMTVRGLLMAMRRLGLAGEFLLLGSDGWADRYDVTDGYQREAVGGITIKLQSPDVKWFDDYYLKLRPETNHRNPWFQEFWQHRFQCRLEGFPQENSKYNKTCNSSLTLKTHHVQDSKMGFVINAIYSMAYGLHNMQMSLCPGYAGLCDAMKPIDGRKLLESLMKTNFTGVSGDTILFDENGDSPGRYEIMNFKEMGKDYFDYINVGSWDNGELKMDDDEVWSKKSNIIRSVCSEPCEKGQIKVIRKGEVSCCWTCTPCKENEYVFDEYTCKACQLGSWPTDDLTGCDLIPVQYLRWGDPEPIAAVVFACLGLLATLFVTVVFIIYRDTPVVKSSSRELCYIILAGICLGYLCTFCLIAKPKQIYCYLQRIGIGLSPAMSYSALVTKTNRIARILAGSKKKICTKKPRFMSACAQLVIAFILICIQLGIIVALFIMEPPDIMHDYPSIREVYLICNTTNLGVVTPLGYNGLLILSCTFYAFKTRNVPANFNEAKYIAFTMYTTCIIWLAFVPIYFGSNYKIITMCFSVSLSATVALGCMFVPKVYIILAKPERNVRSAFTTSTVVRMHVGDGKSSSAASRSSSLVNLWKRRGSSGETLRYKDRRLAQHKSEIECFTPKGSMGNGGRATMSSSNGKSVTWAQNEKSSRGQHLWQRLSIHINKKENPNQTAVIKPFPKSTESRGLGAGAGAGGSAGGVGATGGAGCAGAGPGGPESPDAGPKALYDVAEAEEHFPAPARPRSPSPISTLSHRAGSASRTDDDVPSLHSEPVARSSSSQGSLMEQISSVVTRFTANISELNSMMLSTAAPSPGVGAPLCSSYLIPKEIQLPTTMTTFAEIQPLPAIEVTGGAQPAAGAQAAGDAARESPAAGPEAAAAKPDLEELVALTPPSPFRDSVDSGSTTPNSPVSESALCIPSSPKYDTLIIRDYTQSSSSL

Turning to `O=C1c2nc(COc3ccccc3)nn2CCN1c1ccc(F)cc1`, the EC50 was determined as 2810 nM.

A word on the EC50: it is the concentration that produces a half-maximal response.

For the origin of these results see BindingDB's records for doi:10.1016/j.bmcl.2015.11.098 (Janssen Pharmaceutica, 2016).
